Source: patent US9056876B2, “Substituted 1H-pyrazolo[3′,4′,4,5]thieno[2,3-b]pyridin-3-amine analogs as positive allosteric modulators of the muscarinic acetylcholine receptor M4” (VANDERBILT UNIVERSITY, priority 2011, dated 2015)

Target: T1, mAChR M4 (UniProt P08173)
T1 construct: hM1 and hM4 cDNAs were purchased from Missouri S&T cDNA Resource
T1 sequence (P08173 1-479): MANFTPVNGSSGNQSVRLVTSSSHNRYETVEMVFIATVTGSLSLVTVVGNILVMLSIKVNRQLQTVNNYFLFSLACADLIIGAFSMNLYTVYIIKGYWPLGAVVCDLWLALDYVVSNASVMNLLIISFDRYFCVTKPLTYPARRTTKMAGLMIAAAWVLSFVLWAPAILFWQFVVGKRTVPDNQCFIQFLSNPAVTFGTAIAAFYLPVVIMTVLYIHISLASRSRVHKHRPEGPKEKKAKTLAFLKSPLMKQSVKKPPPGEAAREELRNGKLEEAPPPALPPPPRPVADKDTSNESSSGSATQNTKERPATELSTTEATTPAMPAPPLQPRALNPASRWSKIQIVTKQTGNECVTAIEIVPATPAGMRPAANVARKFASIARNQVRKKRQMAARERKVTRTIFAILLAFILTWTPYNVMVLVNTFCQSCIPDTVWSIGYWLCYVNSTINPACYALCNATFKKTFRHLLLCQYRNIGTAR
Test: mAChR M4 cell-based functional assay (calcium mobilization, Fluo-4, FDSS)
Details: for Emax (%)*: % ACh maximum at 30 μM; for pEC50: positive allosteric modulator activity, EC20 acetylcholine response; for pEC50 / EC50: CHO-K1 cells; for EC50: positive allosteric modulator activity: concentration-dependent increase in the EC20 acetylcholine response, >10 μM estimated for low potency (no plateau)
From the text: Chinese hamster ovary (CHO-K1) cells stably expressing rat (r)M1 were purchased from the American Type Culture Collection and cultured according to their indicated protocol. CHO cells stably expressing human (h)M2, hM3, and hM5 were described previously (Levey A I, et al., (1991) J Neurosci 11:3218-3226.); hM1 and hM4 cDNAs were purchased from Missouri S&T cDNA Resource; rM4 cDNA was provided by T. I. Bonner (National Institutes of Health, Bethesda, Md.). rM2 and rM3 were cloned from a rat brain cDNA library and sequence verified. hM1, rM2, rM3, hM4, and rM4 cDNAs were used to stably transfect CHO-K1 cells purchased from the American Type Culture Collection using Lipofectamine-2000. To make stable rM2, hM2, rM3, hM4, and rM4 cell lines for use in calcium mobilization assays, these cells also were stably transfected with a chimeric G-protein (Gqi5) (provided by B. R. Conklin, University of California, San Francisco) using Lipofectamine 2000. rM1, hM1, rM3, hM3, rM5, and hM5 cells were grown in Ham's F-12 medium containing 10% heat-inactivated fetal bovine serum (FBS), 20 mM HEPES, and 50 µg/mL G418 sulfate. rM2-Gqi5, hM2-Gqi5, and hM4-Gqi5 cells were grown in the same medium also containing 500 µg/mL Hygromycin B. Stable rM4-Gqi5 cells were grown in DMEM containing 10% heat-inactivated FBS, 20 mM HEPES, 400 µg/mL G418 sulfate, and 500 µg/mL Hygromycin B.
For high throughput measurement of agonist-evoked increases in intracellular calcium, CHO-K1 cells stably expressing the target muscarinic receptor were plated in growth medium lacking G418 and hygromycin at 15,000 cells/20 μL/well in Greiner 384-well black-walled, tissue culture (TC)-treated, clear-bottom plates (VWR). Cells were incubated overnight at 37° C. and 5% CO2. The next day, cells were washed using an ELX 405 (BioTek) with four washes (80 μL) of assay buffer then aspirated to 20 μL. Next, […] of 16 μM Fluo-4/acetoxymethyl ester (Invitrogen, Carlsbad, Calif.) prepared as a 2.3 mM stock in DMSO and mixed in a 1:1 ratio with 10% (w/v) Pluronic F-127 and diluted in assay buffer was added to the wells and the cell plates were incubated for 50 min at 37° C. and 5% CO2. Dye was removed by washing with the ELX 405 (four 80 μL washes of assay buffer) then aspirated to 20 μL. Compound master plates were formatted in an 11 point CRC format (1:3 dilutions) in 100% DMSO with a starting concentration of 10 mM using the BRAVO liquid handler (Agilent). Test compound CRCs were then transferred to daughter plates (240 nL) using the Echo acoustic plate reformatter (Labcyte, Sunnyvale, Calif.) and then diluted into assay buffer (40 μL) to a 2× stock using a Thermo Fisher Combi (Thermo Fisher Scientific, Waltham, Mass.).
Calcium flux was measured using the Functional Drug Screening System (FDSS) 6000 (Hamamatsu Corporation, Tokyo, Japan) as an increase in the fluorescent static ratio. Compounds were applied to cells (20 μL, 2×) using the automated system of the FDSS 6000 at 4 s into the 300 s protocol and the data were collected at 1 Hz. At 144 s into the 300 s protocol, 10 μL of an EC20 concentration of the muscarinic receptor agonist acetylcholine was added (5×), followed by the addition of 12 μL an EC80 concentration of acetylcholine at the 230 s time point (5×). Agonist activity was analyzed as a concentration-dependent increase in calcium mobilization upon compound addition. Positive allosteric modulator activity was analyzed as a concentration-dependent increase in the EC20 acetylcholine response. Antagonist activity was analyzed as a concentration-dependent decrease in the EC80 acetylcholine response. Concentration-response curves were generated using a four-parameter logistical equation in XLfit curve fitting software (IDBS, Bridgewater, N.J.) for Excel (Microsoft, Redmond, Wash.) or Prism (GraphPad Software, Inc., San Diego, Calif.). […]

SMILES	Emax (%)* [%]	pEC50	EC50 [nM]
Cc1cc(C)c2c(n1)sc1c(N)n[nH]c12 [Compound 1, 6,8-dimethyl-1H-pyrazolo[3′,4′:4,5]thieno[2,3-b]pyridin-3-amine]	27	<5.00	> 10000
Cc1cc(C)c2c(n1)sc1c(NC(=O)C3CC3)n[nH]c12 [Compound 2, N-(6,8-dimethyl-1H-pyrazolo[3′,4′:4,5]thieno[2,3-b]pyridin-3-yl)cyclopropanecarboxamide]	36	5.42	3840
Cc1cc(C)c2c(n1)sc1c(NCC3CC3)nn(C(=O)OC(C)(C)C)c12 [Compound 8, tert-butyl 3-((cyclopropylmethyl)amino)-6,8-dimethyl-1H-pyrazolo[3′,4′:4,5]thieno[2,3-b]pyridine-1-carboxylate]	61	5.62	2410
Cc1cc(C)c2c(n1)sc1c(NC3CCCC3)n[nH]c12 [Compound 10, N-cyclopentyl-6,8-dimethyl-1H-pyrazolo[3′,4′:4,5]thieno[2,3-b]pyridin-3-amine]	55	5.76	1740
Cc1cc(C)c2c(n1)sc1c(NC(C)C)n[nH]c12 [Compound 11, N-isopropyl-6,8-dimethyl-1H-pyrazolo[3′,4′:4,5]thieno[2,3-b]pyridin-3-amine]	59	5.62	2410
Cc1cc(C)c2c(n1)sc1c(NC3CCSCC3)n[nH]c12 [Compound 12, 6,8-dimethyl-N-(tetrahydro-2H-thiopyran-4-yl)-1H-pyrazolo[3′,4′:4,5]thieno[2,3-b]pyridin-3-amine]	38	5.36	4390
Cc1cc(C)c2c(n1)sc1c(NC3CCOCC3)n[nH]c12 [Compound 13, 6,8-dimethyl-N-(tetrahydro-2H-pyran-4-yl)-1H-pyrazolo[3′,4′:4,5]thieno[2,3-b]pyridin-3-amine]	37	5.14	7320
Cc1nc2sc3c(NCC4CC4)n[nH]c3c2c(C)c1Cl [Compound 14, 7-chloro-N-(cyclopropylmethyl)-6,8-dimethyl-1H-pyrazolo[3′,4′:4,5]thieno[2,3-b]pyridin-3-amine]	69	5.80	1600
CCNc1n[nH]c2c1sc1nc(C)cc(C)c12 [Compound 15, N-ethyl-6,8-dimethyl-1H-pyrazolo[3′,4′:4,5]thieno[2,3-b]pyridin-3-amine]	65	5.68	2100
Cc1nc2sc3c(NCc4ccccc4)n[nH]c3c2c(C)c1Cl [Compound 16, N-benzyl-7-chloro-6,8-dimethyl-1H-pyrazolo[3′,4′:4,5]thieno[2,3-b]pyridin-3-amine]	32	<5.00	> 10000
Cc1nc2sc3c(NCc4ccccc4)nn(C)c3c2c(C)c1Cl [Compound 17, N-benzyl-7-chloro-1,6,8-trimethyl-1H-pyrazolo[3′,4′:4,5]thieno[2,3-b]pyridin-3-amine]	39	<5.00	> 10000
COc1ccc(CNc2nn(C)c3c2sc2nc(C)c(Cl)c(C)c23)cc1 [Compound 18, 7-chloro-N-(4-methoxybenzyl)-1,6,8-trimethyl-1H-pyrazolo[3′,4′:4,5]thieno[2,3-b]pyridin-3-amine]	51	<5.00	> 10000
Cc1nc2sc3c(NCc4ccco4)n[nH]c3c2c(C)c1Cl [Compound 20, 7-chloro-N-(furan-2-ylmethyl)-6,8-dimethyl-1H-pyrazolo[3′,4′:4,5]thieno[2,3-b]pyridin-3-amine]	48	5.85	1400
Cc1nc2sc3c(NCc4cccs4)n[nH]c3c2c(C)c1Cl [Compound 21, 7-chloro-6,8-dimethyl-N-(thiophen-2-ylmethyl)-1H-pyrazolo[3′,4′:4,5]thieno[2,3-b]pyridin-3-amine]	39	<5.00	> 10000
Cc1nc2sc3c(NCc4ccc(F)cc4)nn(C)c3c2c(C)c1Cl [Compound 22, 7-chloro-N-(4-fluorobenzyl)-1,6,8-trimethyl-1H-pyrazolo[3′,4′:4,5]thieno[2,3-b]pyridin-3-amine]	57	<5.00	> 10000

The next compounds have a lower EC50 than those just listed; values first:

Emax (%)* [%]	pEC50	EC50 [nM]	SMILES
68	5.90	1260	Cc1cc(C)c2c(n1)sc1c(NCC3CC3)n[nH]c12 [Compound 7, N-(cyclopropylmethyl)-6,8-dimethyl-1H-pyrazolo[3′,4′:4,5]thieno[2,3-b]pyridin-3-amine]
46	5.91	1240	Cc1cc(C)c2c(n1)sc1c(NCCC(C)C)n[nH]c12 [Compound 3, N-isopentyl-6,8-dimethyl-1H-pyrazolo[3′,4′:4,5]thieno[2,3-b]pyridin-3-amine]
58	5.94	1150	COc1ccc(CNc2n[nH]c3c2sc2nc(C)cc(C)c23)cc1 [Compound 6, N-(4-methoxybenzyl)-6,8-dimethyl-1H-pyrazolo[3′,4′:4,5]thieno[2,3-b]pyridin-3-amine]
58	5.97	1070	Cc1cc(C)c2c(n1)sc1c(NCc3ccccc3)n[nH]c12 [Compound 5, N-benzyl-6,8-dimethyl-1H-pyrazolo[3′,4′:4,5]thieno[2,3-b]pyridin-3-amine]
43	5.98	1050	Cc1cc(C)c2c(n1)sc1c(NCc3ccccc3F)n[nH]c12 [Compound 9, N-(2-fluorobenzyl)-6,8-dimethyl-1H-pyrazolo[3′,4′:4,5]thieno[2,3-b]pyridin-3-amine]
54	5.99	1030	Cc1cc(C)c2c(n1)sc1c(NCc3ccc(F)cc3)n[nH]c12 [Compound 4, N-(4-fluorobenzyl)-6,8-dimethyl-1H-pyrazolo[3′,4′:4,5]thieno[2,3-b]pyridin-3-amine]
65	6.59	260	Cc1nc2sc3c(NCC4CC4)nn(C)c3c2c(C)c1Cl [Compound 19, 7-chloro-N-(cyclopropylmethyl)-1,6,8-trimethyl-1H-pyrazolo[3′,4′:4,5]thieno[2,3-b]pyridin-3-amine]
